The source of these data is PMC8910872, “A Competition between Hydrogen, Stacking, and Halogen Bonding in N-(4-((3-Methyl-1,4-dioxo-1,4-dihydronaphthalen-2-yl)selanyl)phenyl)acetamide: Structure, Hirshfeld Surface Analysis, 3D Energy Framework Approach, and DFT Calculation” (International Journal of Molecular Sciences, 2022).

“Also recorded” adds a separate entry of the source.

In data set [1] the test system is MCF-7. More on the design: method as in PMID 29864687, doi:10.1016/j.arabjc.2021.103051. To be noted: read-out: IC50 (cytotoxic activity against MCF-7); cited from earlier work.
Data set [2] relates to 158N cells. The data set can be described thus: MTT cytotoxicity assay on 158N oligodendrocytes. As to conditions: Mus musculus, 0, 1, 10, 20, 50, 100 µM, mean of two parallel experiments, read-out: IC50 (viability of 158N cells). The format is cell-based, Murine. The source says: (§1) The cytotoxicity was estimated by the MTT assay against different oligodendrocytes, such as 158 JP and 158 N cells, and 7-ketocholesterol was the control. Different in vitro assays were used to estimate the redox activity, including the dihydroethidium (DHE), 2′,7′-dichlorodihydrofluorescein diacetate (H2-DCFDA), 2,2′-azinobis-3-ethylbenzothioazoline-6-sulphonate (ABTS), 2,2-diphenyl-2-picrylhydrazyl (DPPH), and the bleomycin-induced DNA damage assays.
(§2) Murine oligodendrocytes (158N and 158JP) were seeded at 240,000 cells per 24-well plates and were grown using the Dulbecco’s Modified Eagle Medium supplemented with penicillin antibiotics (1% v/v, streptomycin) and fetal bovine serum (5% v/v) and kept at 37 °C an atmosphere containing 5% CO2 [3]. […] Organ ic sel enides 4 and 5 were prepared in DMSO and then diluted with DMEM up to 1 mM.
The MTT assay was carried out on 158N and 158JP cells after one day of incubation with 7kc (50µM)/different concentrations (0, 1, 10, 20, 50, and 100 µM) of the o rganic selenides 4 an d 5 were. In live cells, the MTT is reduced to formazan by the succinate dehydrogenase mitochondrial enzy me. The microplate reader Tecan Sunrise (Tecan, Lyon, France) was used for the reading of the plates at 570 nm. The IC50 values and the maximu m concentrations without toxicity were estimated for organic selenides 4 and 5 from the respective dose-response curves.
Table S1. Effect of the organoselenium compounds on the viability of 158N and 158JP […]
The cytotoxicity was measured after two days of treatment with different concentrations (0, 1, 10, 20, 50, and 100 µM) of the organic selenides using the MTT assay. The IC50 was estimated as the mean of two parallel experiments;
Background: Formazan colour is commonly taken as a measure of viable cells.

Data set [3] deals with HepG2. Further details: method as in PMID 29864687, doi:10.1016/j.arabjc.2021.103051. To be noted: read-out: IC50 (cytotoxic activity against HepG2); cited from earlier work.
The subject of data set [4] is 158JP cells. The data set can be described thus: MTT cytotoxicity assay on 158JP oligodendrocytes. It is filed as cell-based, Murine. To be noted: mean of two parallel experiments.
From the text: as §1, §2
The MTT assay was carried out on 158N and 158JP cells after one day of incubation with 7kc (50µM)/different concentrations (0, 1, 10, 20, 50, and 100 µM) of the o rganic selenides 4 an d 5 were. […] The microplate reader Tecan Sunrise (Tecan, Lyon, France) was used for the reading of the plates at 570 nm. […]
The cytotoxicity was measured after two days of treatment with different concentrations (0, 1, 10, 20, 50, and 100 µM) of the organic selenides using the MTT assay. […]

Data set [5] deals with calf thymus DNA. The data set can be described thus: Bleomycin-dependent DNA damage assay. As to conditions: 2 mM tested compound; for Bleomycin-dependent DNA damage assay (Abs.): absorbance at 532 nm, means of 3 replicates; for Bleomycin-dependent DNA damage, % of Vitamin C: relative to L-ascorbic acid (2 mM). Further details: Bleomycin-dependent DNA damage assay (Abs.): scale not given here. The format is biochemical.
From the text: as §1
(§3) Bleomycin-dependent DNA damage
The assay was performed according to the reported method with minor modifications. The reaction mixture contained 0.5 mg/ml calf thymus DNA, 0.05 mg/ml b leomy cin sulfate, 5 mM magnesium chloride, 50 mM ferric chloride, 2 mM tested compound. L-ascorbic acid (2 mM) was used as a positive control. The mixture was incubated at 37 °C for 1 hour. The activity of test compounds was evaluated as malondialdehyde equivalents. Thiobarbituric acid reactive substances, which arose from deoxyribose degradation of DNA were assessed. The reaction was terminated by the addition of 0.05 ml 0.1 M EDTA. The color was developed by adding 0.5 ml of 1% w/v thiobarbituric acid and 0.5 ml of 25% v/v HCl (25% v/v). The tube was capped with a screw cap and heated at 80 °C for 30 min. After cooling in ice water, the mixture was then shaken and centrifuged and the extent of DNA damage was measured by an increase in absorbance at […]
Table S4. The Bleomycin-dependent DNA damage assay.
Compd. No. DNA damage assay % of Vitamin C […]
a ascorbic acid is used as a standard for antioxidant activity; values are means of 3 replicates; b not detected.

Data set [6] deals with 158N cells. The experiment in a line: DHE assay of superoxide anion (O2•−) production (flow cytometry). It is filed as cell-based, Murine. As to conditions: for DHE assay (% of positive cells), superoxide anion production: 158N cells, mean ± SD.
From the text: as §1
(§4) The levels of ROS were monitored with the H2-DCFDA and DHE assays using flow cytometry. Briefly, 158 N cells were mixed with serial concentrations (0–50 μM) of compound 4 and compound 5 using Vitamin E as the control.
ROS overproduction and O2•− were detected with DCF and DHE, respectively. Cultured cells were treated with trypsin re-suspended in PBS (10^6 cells/mL) and kept in the dark for a half-hour at 37°C with H2-DCFDA or DHE at 10 μM and 2 μM and cells were analyzed by flow cytometry. […]
Flomax (Partec) or FlowJo (Tree Star Inc.) software was used for th e data analysis. […]
Table S3. Evaluation of the effects of compounds on superoxide anions (O2•− ) production […]
DHE assay (% of positive cells)
158N Cells were grown in the presence of different compounds (C1=10; C2= 20; C3=50 µM); Flow cytometry techniques was used to estimate the O2•− production via staining with DHE; Data are shown as mean ± SD and expressed as % control; Significance of the difference between the DMSO and compounds. […]
On the technique in general: Flow cytometry measures light scatter and fluorescence of single cells or particles in a stream.

Data set [7] can be described thus: GPx-like activity assay (NADPH-coupled, H2O2 reduction). It is filed as biochemical. As to conditions: ebselen (41 µM) positive control. How it is done: page 19: GPx -like activity The GPx-kit was purchased from Biodiagnostic (Egypt) and used according to the reported method. The sample was prepared by adding assay buffer and NADPH reagent (0 .1 ml; 24 μmol Glutathione, 4.8 μmol NADPH and12 units Glutathione reductase), and organic selenide 4 (0.01 ml, 41 μM). H2O2 (0.8 mM) was then added, and the absorbance was kinetically recorded every 1 min at wavelength 340 nm over three successive minutes. […]/min was calculated. Ebselen (41 μM) was used as the positive control. For colored organoselenium compounds, their absorbance was subtracted at the used wavelength. 0.008 0.007 0.006 0.005 0.004 0.003 0.002 0.001 0 Eb selen 4 5 Figure S11 . GPx-like activity assay (μM. min-1). The reduction of H2O2 by GPx-like activity was tracked by […] of glutathione disulfide (GSSG) and NADPH to glutathion e (GSH, reduced form) and NADP+, respectively. The latter was detected by a decrease in the absorbance at 340 nm. References 1. […], Jacob C. Sulfur, selenium and tellurium pseudopeptides: synthesis and biological evaluation. Bioo rg. Med. Chem. 22(14), 3610-3619 (2014). 2. […]. Synthesis and anti-tumor evaluation of novel organoselenocyanates and symmetrical diselenides dyestuffs . Der Pharma Chemica. 6, 186-193 (2014).

The nature of data set [8]: Bleomycin-induced DNA damage, DPPH and ABTS in vitro radical scavenging assays. As to conditions: DPPH, ABTS assays.
From the text: as §1, §3
The assay was performed according to the reported method with minor modifications. […] The activity of test compounds was evaluated as malondialdehyde equivalents. Thiobarbituric acid reactive substances, which arose from deoxyribose degradation of DNA were assessed. […] After cooling in ice water, the mixture was then shaken and centrifuged and the extent of DNA damage was measured by an increase in absorbance at […]
a ascorbic acid is used as a standard for antioxidant activity; values are means of 3 replicates; b not detected. […]
The hydrogen atom or electron donation ability of the corresponding compounds was measured by estimating the bleaching of the purple color of a methanolic solution of DPPH. […] After 30 min of incubation in the dark, the absorbance was read against a blank at 517 nm. […] The radical scavenging activity was calculated using the following equ ation : I% = (Ablank- […]
Background: Loss of DPPH colour is used to gauge radical scavenging.

Data set [9] deals with 158N cells. The experiment in a line: H2-DCFDA assay of ROS production (flow cytometry). The format is cell-based, Murine. As to conditions: for Effect on ROS level / H2-DCF intensity (in words): 158 N cells, 0–50 μM, vitamin E as control; for H2-DCFDA assay (% of control), ROS production: 158N cells, mean ± SD.
From the text: as §1, §4
ROS overproduction and O2•− were detected with DCF and DHE, respectively. Cultured cells were treated with trypsin re-suspended in PBS (10^6 cells/mL) and kept in the dark for a half-hour at 37°C with H2-DCFDA or DHE at 10 μM and 2 μM and cells were analyzed by flow cytometry.
The green fluorescence of 2’,7’- dichlorofluorescein resulting from the oxidation of H2-DCFDA was analyzed by flow cytometry and collected through a 520/10-nm bandpass filter. DHE, a non-fluorescent compound, rapidly oxidized in ethidium under the action of O2•− to give 2-hydroxyethidium that intercalates with DNA giving red fluorescence of ethidium collected through a 590/10-nm bandpass filter using an excitation of 488 nm and an emission wavelength of 575 nm.
Flomax (Partec) or FlowJo (Tree Star Inc.) software was used for th e data analysis.
Table S2. Evaluation of the effects of compounds on ROS production by H2-DCFDA assay.
H2-DCFDA assay (% of control)
158N Cells were cultured in the presence of different compounds (C1=10; C2= 20; C3=50 µM); Flow cytometry technique was used to evaluate ROS levels via staining cells with H2-DCF; data are shown as mean ± SD and expressed as % control; the significance of the difference between the DMSO and compounds. Treated cells are indicated by (Mann–Whitney test; *: P < 0.05); vitamin E (50 µM) was used as a positive control.

Consider `CC1=C([Se]c2ccc(N)cc2)C(=O)c2ccccc2C1=O` [Compound 4], for which the IC50 was 14.7 µM in [1], 27 µM in data set [2] and 900 nM in data set [3]. Also, in [4] (0, 1, 10, 20, 50, 100 µM), the “IC50 (viability of 158JP cells)” value was “no growth inhibition was observed”. For the same compound, in [5], the “Bleomycin-dependent DNA damage assay (Abs.)” value worked out at 483. Besides, the “Bleomycin-dependent DNA damage, % of Vitamin C” value in [5] amounted to 48.8%. Besides, the “Effect on O2− production in DHE assay (in words)” value in data set [6] (158 N cells, 0–50 μM) was “promote the production of O2^−”. Further, the “DHE assay (% of positive cells), superoxide anion production” value (“DHE assay (% of positive cells)” for short) in [6] (C1 (10 µM)) is listed as 264 ±25 % of positive cells; in [6] (C2 (20 µM)), 406±29 % of positive cells; in [6] (C3 (50 µM), vitamin E 50 µM), 417±31 % of positive cells. In [7], the “GPx-like activity (in words)” value is reported as “moderate GPx-like activity”. Besides, the “Pro-oxidant properties compared to vitamin C” value in data set [8] is “up to 60%”. Also, the “Effect on ROS level / H2-DCF intensity (in words)” value in [9] is “pronounced pro-oxidant activity”. Moreover, the “H2-DCFDA assay (% of control), ROS production” value (from here on “H2-DCFDA assay (% of control)”) in data set [9] (C1 (10 µM)) was 700 ± 143 % of control; in [9] (C2 (20 µM)) it was 854 ± 135 % of control; in data set [9] (C3 (50 µM), vitamin E 50 µM), 935 ± 307 % of control.

For `CC(=O)Nc1ccc([Se]C2=C(C)C(=O)c3ccccc3C2=O)cc1` [Compound 5, N-(4-((3-Methyl-1,4-dioxo-1,4-dihydronaphthalen-2-yl)selanyl)phenyl)acetamide], the IC50 in [2] is 11 µM. Moreover, in data set [5], the “Bleomycin-dependent DNA damage assay (Abs.)” value is 581. In data set [5], the “Bleomycin-dependent DNA damage, % of Vitamin C” value was determined as 58.8%. The “DHE assay (% of positive cells)” value is 109±12 % of positive cells in data set [6] (C1 (10 µM)); 121 ±1 % of positive cells in data set [6] (C2 (20 µM)); 120 ±4 % of positive cells in [6] (C3 (50 µM), vitamin E 50 µM). Also, the “GPx-like activity (in words)” value in data set [7] is given as “moderate GPx-like activity”. In addition, the “Pro-oxidant properties compared to vitamin C” value in data set [8] was “up to 60%”. The “Effect on ROS level / H2-DCF intensity (in words)” value in data set [9] was “decrease the H2-DCF intensity; also recorded: decreased the ROS level”. The “H2-DCFDA assay (% of control)” value is 7 ± 2 % of control in data set [9] (C1 (10 µM)); 5 ± 1 % of control in data set [9] (C2 (20 µM)); 6 ± 1 % of control in [9] (C3 (50 µM), vitamin E 50 µM).

Consider `CC(C)CCC[C@@H](C)[C@H]1CC[C@H]2[C@@H]3C(=O)C=C4C[C@@H](O)CC[C@]4(C)[C@H]3CC[C@]12C` [Compound 7kc, 7-ketocholesterol, reference compound], for which the IC50 in data set [2] is 37 µM; in [4] (Mus musculus, 0, 1, 10, 20, 50, 100 µM, read-out: IC50 (viability of 158JP cells)), 74 µM.

Take `O=C1O[C@H]([C@@H](O)CO)C(O)=C1O` [Vit.C, L-ascorbic acid, reference compound]: in data set [5], the “Bleomycin-dependent DNA damage assay (Abs.)” value was 989 and the “Bleomycin-dependent DNA damage, % of Vitamin C” value stood at 100%.

For VITAMINE E [reference compound], in data set [6] (C3 (50 µM), vitamin E 50 µM), the “DHE assay (% of positive cells)” value was 74± 1 % of positive cells. Moreover, the “H2-DCFDA assay (% of control)” value in [9] (C3 (50 µM), vitamin E 50 µM) was 94 ± 5 % of control.

A word on the IC50: it is the concentration at which inhibition is half-maximal.
